Reference: publication PMC3260207, “Site-Directed Mutations and the Polymorphic Variant Ala160Thr in the Human Thromboxane Receptor Uncover a Structural Role for Transmembrane Helix 4” (PLoS ONE, 2012)
Changes are numbered by the printed parent chain.

Key:
TP A160S mutant = molecular target: T1, TP A160S mutant (Homo sapiens, UniProt P21731, A160S); test: Heterologous competition binding, unlabeled U46619 against 4 nM [3H] SQ 29,548; conditions: read-out: Ki of agonist U46619, 4 nM [3H] SQ 29,548, 2 hr room temperature, Cheng-Prusoff from IC50
T1 construct: expressed in transfected cells; HEK293T (calcium assays)
T1 sequence (P21731 1-343 A160S): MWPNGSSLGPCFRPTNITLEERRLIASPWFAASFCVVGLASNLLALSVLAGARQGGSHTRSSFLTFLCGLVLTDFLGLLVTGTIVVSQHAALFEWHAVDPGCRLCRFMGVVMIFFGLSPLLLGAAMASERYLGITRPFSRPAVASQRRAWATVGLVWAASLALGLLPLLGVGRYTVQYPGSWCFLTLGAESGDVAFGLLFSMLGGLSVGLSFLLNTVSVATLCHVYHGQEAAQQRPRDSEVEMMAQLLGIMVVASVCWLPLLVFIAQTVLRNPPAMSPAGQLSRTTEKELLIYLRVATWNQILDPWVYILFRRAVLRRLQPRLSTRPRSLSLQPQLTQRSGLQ
Description: (§1) Amino acid substitutions were introduced into the synthetic TPα gene carried by the expression vector pMT4 as described previously, [29]. DNA sequences of all the mutated genes were verified by automated DNA sequencing. To minimize variations in transfection efficiency, the total amount transfected DNA was kept constant in all cases at 1 µg of DNA per 7×10^5 cells. The wild type TP or mutant genes were expressed in COS-1 cells using a DEAE-dextran based transient transfection method, [29], and in HEK293T cells using lipofectamine 2000 (Invitrogen). Except unless specified, the membranes prepared from COS-1 cells were used for radioligand binding assays and immunoblots. For intracellular calcium determination assays and immunofluorescence imaging, HEK293T cells were used. For transient transfections of HEK293T cells using the plasmid pMT4, lipofectamine 2000 (Invitrogen) mediated transfection was used as described by the manufacturer. Membranes were prepared using Buffers A and B and as described previously, [29]. The protein concentration in the resuspended membrane pellet was determined using a modified DC protein assay kit from Bio-Rad Laboratories (Hercules, CA).
(§2) These were carried out in Buffer C for 60 min at room temperature, using 2 to 20 µg of membrane protein and different concentrations of [^3H] […] Binding of [^3H] […] Competition binding assays were performed using 4 nM [^3H] […] Binding was terminated by filtering under vacuum on GF/A filters (Millipore). Filter-bound radioactivity was measured using a liquid scintillation counter. Equilibrium dissociation constants (Kd) were determined from saturation isotherms using PRISM software version 5.0 (GraphPad Software Inc, San Diego, CA, USA). The Ki values were calculated from the IC50, using the equation of Cheng and Prusoff by PRISM software version 5.0. Where applicable, statistical significance of the data was evaluated using analysis of variance (ANOVA) and/or unpaired t test.

[1] = molecular target: T2, TP A160T mutant (nsSNP variant) (Homo sapiens, UniProt P21731, A160T); test: as above; conditions: read-out: Ki of agonist U46619, 4 nM [3H] SQ 29,548, 2 hr room temperature, Cheng-Prusoff from IC50
T2 construct: expressed in transfected cells; HEK293T (calcium assays)
T2 sequence (P21731 1-343 A160T): T1 sequence (P21731 1-343 A160S) with S160T
Description: as §1, §2

TP A160V mutant = molecular target: T3, TP A160V mutant (Homo sapiens, UniProt P21731, A160V); test: as above; conditions: read-out: Ki of agonist U46619, 4 nM [3H] SQ 29,548, 2 hr room temperature, Cheng-Prusoff from IC50
T3 construct: expressed in transfected cells; HEK293T (calcium assays)
T3 sequence (P21731 1-343 A160V): T1 sequence (P21731 1-343 A160S) with S160V
Description: as §1, §2

[2] = molecular target: T4, TP A160V/F115A double mutant (Homo sapiens, UniProt P21731, A160V/F115A); test: Intracellular calcium mobilization (Fluo-4NW) in transfected HEK293T cells; format: cell-based; design: expressed in transfected cells; transient, pMT4; conditions: read-out: EC50 of agonist U46619 (calcium mobilized), transiently transfected HEK293T cells, mean ± S.E
T4 sequence (P21731 1-343 F115A/A160V): T1 sequence (P21731 1-343 A160S) with F115A, S160V
Description: as §1, with “For transient transfections of HEK293T cells using the plasmid pMT4, lipofectamine 2000 (Invitrogen) mediated transfection was used as described by the manufacturer. Membranes were prepared using Buffers A and B and as described previously, [29].” left out
Changes in intracellular calcium were measured by using the fluorescent calcium sensitive dye Fluo-4NW (Invitrogen). […] Dose–response curves were generated and EC50 values calculated by nonlinear regression analysis using PRISM software version 5.0 (GraphPad Software Inc, San Diego, CA) after subtracting the responses of mock-transfected cells stimulated with same concentrations of agonists.

- Ki (TP A160S mutant): 1520 nM
- Ki [1]: 720 nM
- Ki (TP A160V mutant): 1510 nM
- EC50 [2]: 43.5 ± 1.5 nM
SMILES: CCCCC[C@H](O)/C=C/[C@@H]1[C@@H](C/C=C\CCCC(=O)O)[C@H]2CO[C@@H]1C2 [U46619]
